According to patent US20180141913A1 (EISAI R & D MANAGEMENT CO., LTD., priority 2016, published 2018):
Read-outs that look alike come from different tables or passages of the source.

Experiments:
[1] = system: MCF7-Y537S cells (MCF7 ER-alpha Y537S mutant); test: In vitro proliferation (viability) assay, MCF7-Y537S cells; type: cell-based; conditions: Homo sapiens
Experimental: (§1) MCF7 BUS cells (Coser, et al., (2003) PNAS 100(24): 13994-13999) were maintained in Dulbecco's Modified Eagle Medium supplemented with 10% FBS, 4 mM L-glutamine and 1× non-essential amino acids. Lenti-X 293T cells (Clontech, Cat #632180) were routinely cultured in Dulbecco's Modified Eagle Medium supplemented with 10% FBS.
(§2) The QuikChange II XL Site-Directed Mutagenesis Kit (Agilent Technologies, Cat #200523) was used to generate Y537S, Y537C, Y537N and D538G mutations within the ERα exon 8. Wild-type ESR1 cDNA (GeneCopoeia Inc., Cat# GC-A0322, accession no. NM 000125) was used as a template with the following mutagenesis primers (where the underlined nucleotides represent site mutations); Y537S: F-AAGAACGTGGTGCCCCTCTCTGACCTGCTGCTGGAGATG (SEQ ID NO: 1), R-CATCTCCAGCAGCAGGTCAGAGAGGGGCACCACGTTCTT (SEQ ID NO: 2); Y537N: F-AAGAACGTGGTGCCCCTCAATGACCTGCTGCTGGAGATG (SEQ ID NO: 3), R-CATCTCCAGCAGCAGGTCATTGAGGGGCACCACGTTCTT (SEQ ID NO: 4); Y537C: F-AAGAACGTGGTGCCCCTCTGTGACCTGCTGCTGGAGATG (SEQ ID NO: 5), R-CATCTCCAGCAGCAGGTCACAGAGGGGCACCACGTTCTT (SEQ ID NO: 6); D538G: F-AACGTGGTGCCCCTCTATGGCCTGCTGCTGGAGATGCTG (SEQ ID NO: 7), R-CAGCATCTCCAGCAGCAGGCCATAGAGGGGCACCACGTT (SEQ ID NO: 8). WT and mutant ESR1 cDNAs were cloned into the designation lentiviral vector pLenti6.3/V5-Dest (Invitrogen, Cat #V533-06). To make lentivirus, DNAs (WT and mutant ESR1) were co-transfected with packaging plasmids into Lenti-X 293T cells using TransIT (Mirus, Cat #MIR 2700). 48 h post-transfection, virus containing media was filtered and added to MCF7 cells in the presence of 8 µg/ml polybrene overnight. Two days following infection, cells were placed under selection with 10 µg/ml blasticidin for 2 weeks for stable expression.
(§3) MCF7-WT and -Y537S cells were seeded at 1500 cells/well in black-walled 96-well plates (assay plates, Costar, Cat #3904). In parallel, cells were also seeded in a separate 96-well plate (8 wells/cell line, control plate) for which a CTG (CellTiter-Glo® Luminescent Viability Assay, Promega, Cat #G7572) was measured the following day (day 0 reading). The day 0 reading was used for the GI50 calculation at the termination of the experiment. The day following seeding, compounds were added to assay plates. Briefly, a 1:4 serial dilution was prepared in DMSO at 200× final concentration for a total of 10 concentrations (9 dilutions containing compound and one is DMSO only). Serially diluted compounds were pipetted into medium to prepare a compound-medium mix at 10× final concentration. 10 μl of compound-medium mix was added to MCF7-WT and -Y537S cells at 3 wells/concentration (triplicate for each concentration). On day 3, media/compound was removed and replaced with fresh media/compound as described above. On day 6, CTG was measured and compared to day 0 readings from control plate to assess GI50.

[2] = system: MCF7-WT cells (MCF7 ER-alpha wildtype); test: In vitro proliferation (viability) assay, MCF7-WT cells; type: cell-based; conditions: Homo sapiens
Experimental: as §1, §2, §3

[3] = MCF7, CellTiter-Glo, day 6 vs day 0, average ± standard deviation, free base and/or salt forms, read-out: MCF7 Y537S GI50
[4] = MCF7, CellTiter-Glo, day 6 vs day 0, average ± standard deviation, free base and/or salt forms, read-out: MCF7 WT GI50

| SMILES | GI50 [1, 3] [nM] | GI50 [2, 4] [nM] | GI50 ([1]; MCF7, read-out: MCF7 Y537S GI50 (nM)) [nM] | GI50 ([2]; MCF7, read-out: MCF7 WT GI50 (nM)) [nM] |
| --- | --- | --- | --- | --- |
| CC/C(=C(/c1ccc(OCCNC/C=C/C(=O)NC)cc1)c1ccc2[nH]nc(F)c2c1)c1ccc(F)cc1Cl [Compound 48, (E)-4-((2-(4-((E)-2-(2-chloro-4-fluorophenyl)-1-(3-fluoro-1H-indazol-5-yl)but-1-en-1-yl)phenoxy)ethyl)amino)-N-methylbut-2-enamide] | 8.25 ± 2.6 | 0.8 ± 0.14 |  |  |
| CC/C(=C(/c1ccc(OCCNC/C=C/C(=O)O)cc1)c1ccc2[nH]ncc2c1)c1ccccc1 [Compound 73, (E)-4-((2-(4-((E)-1-(1H-indazol-5-yl)-2-phenylbut-1-en-1-yl)phenoxy)ethyl)amino)but-2-enoic acid] | 155 ± 60.1 | 7.34 ± 0.58 |  |  |
| O=C(CCCNCCOc1ccc(/C(=C(/CC(F)(F)F)c2ccccc2)c2ccc3[nH]nc(F)c3c2)cc1)N1CCCC1 [Compound 41, (E)-1-(pyrrolidin-1-yl)-4-((2-(4-(4,4,4-trifluoro-1-(3-fluoro-1H-indazol-5-yl)-2-phenylbut-1-en-1-yl)phenoxy)ethyl)amino)butan-1-one] | 9.38 ± 7.61 | 0.24 ± 0.04 |  |  |
| O=C(/C=C/CNCCOc1ccc(/C(=C(/CC(F)(F)F)c2ccccc2)c2ccc3[nH]ncc3c2)cn1)N1CCOCC1 [Compound 19, (E)-1-morpholino-4-((2-((5-((Z)-4,4,4-trifluoro-1-(1H-indazol-5-yl)-2-phenylbut-1-en-yl)pyridin-2-yl)oxy)ethyl)amino)but-2-en-1-one] | 3.15 ± 0.01 | 0.66 ± 0.05 |  |  |
| O=C1NCCC1CCNCCOc1ccc(/C(=C(/CC(F)(F)F)c2ccccc2)c2ccc3[nH]nc(F)c3c2)cn1 (stereo not shown) [Compound 53, (Z)-3-(2-((2-((5-(4,4,4-trifluoro-1-(3-fluoro-1H-indazol-5-yl)-2-phenylbut-1-en-1-yl)pyridin-2-yl)oxy)ethyl)amino)ethyl)pyrrolidin-2-one] | 1.8 | 0.3 |  |  |
| CNC(=O)/C=C/CNCCOc1ccc(/C(=C(/CC(F)(F)F)c2ccc(F)cc2Cl)c2ccc3[nH]ncc3c2)cn1 [Compound 58, (E)-4-((2-((5-((Z)-2-(2-chloro-4-fluorophenyl)-4,4,4-trifluoro-4,4,4-trifluoro-1-(1H-indazol-5-yl)but-1-en-1-yl)pyridin-2-yl)oxy)ethyl)amino)-N-methylbut-2-enamide] | 3.97 ± 2.25 | 0.33 ± 0.12 |  |  |
| O=C(/C=C/CNCCOc1ccc(/C(=C(/CC(F)(F)F)c2ccccc2)c2ccc3[nH]nc(F)c3c2)cc1)N1CCCCC1 [Compound 52, (E)-1-(piperidin-1-yl)-4-((2-(4-((E)-4,4,4-trifluoro-1-(3-fluoro-1H-indazol-5-yl)-2-phenylbut-1-en-1-yl)phenoxy)ethyl)amino)but-2-en-1-one] | 9.3 | 1.2 |  |  |
| CCC/C(=C(/c1ccc(OCCNC/C=C/C(=O)NC)cc1)c1ccc2[nH]nc(F)c2c1)c1ccccc1 [Compound 67, (E)-4-((2-(4-((E)-1-(3-fluoro-1H-indazol-5-yl)-2-phenylpent-1-en-1-yl)phenoxy)ethyl)amino)-N-methylbut-2-enamide] | 87.7 ± 55 | 5.38 ± 0.66 |  |  |
| CNC(=O)/C=C/CNCCOc1ccc(/C(CC(F)(F)F)=C(\c2ccccc2)c2ccc3[nH]nc(F)c3c2)cn1 [Compound 5, (E)-N-methyl-4-((2-((5-((E)-4,4,4-trifluoro-1-(3-fluoro-1H-indazol-5-yl)-1-phenylbut-1-en-2-yl)pyridin-2-yl)oxy)ethyl)amino)but-2-enamide] | 180 ± 227 | 88.5 ± 42.7 |  |  |
| CNC(=O)/C=C/CNCCOc1ccc(/C(=C(/CC(F)(F)F)c2ccc(F)cc2Cl)c2ccc3[nH]nc(F)c3c2)cc1 [Compound 47, (E)-4-((2-(4-((E)-2-(2-chloro-4-fluorophenyl)-4,4,4-trifluoro-1-(3-fluoro-1H-indazol-5-yl)but-1-en-1-yl)phenoxy)ethyl)amino)-N-methylbut-2-enamide] | 7.25 ± 8.77 | 0.64 ± 0.4 |  |  |
| Cl.[2H]C([2H])([2H])N(C(=O)/C=C/CNCCOc1ccc(/C(=C(/CC(F)(F)F)c2ccccc2)c2ccc3[nH]ncc3c2)cn1)C([2H])([2H])[2H] [Compound 25, (E)-N,N-di(H3)methyl-4-((2-((5-((Z)-4,4,4-trifluoro-1-(1H-indazol-5-yl)-2-phenylbut-1-en-1-yl)pyridin-2-yl)oxy)ethyl)amino)but-2-enamide] | 1.58 ± 0.23 | 0.38 ± 0.16 |  |  |
| CC/C(=C(/c1ccc(OCCNC/C=C/C(=O)NC)cc1)c1ccc2[nH]ncc2c1)c1ccccc1 [Compound 50, (E)-4-((2-(4-((E)-1-(1H-indazol-5-yl)-2-phenylbut-1-en-1-yl)phenoxy)ethyl)amino)-N-methylbut-2-enamide] | 98.5 ± 81.5 | 4 ± 1.16 |  |  |
| COCCNC(=O)/C=C/CNCCOc1ccc(/C(=C(/CC(F)(F)F)c2ccccc2)c2ccc3[nH]nc(F)c3c2)cn1 [Compound 20, (E)-N-(2-methoxyethyl)-4-((2-((5-((Z)-4,4,4-trifluoro-1-(3-fluoro-1H-indazol-5-yl)-2-phenylbut-1-en-1-yl)pyridin-2-yl)oxy)ethyl)amino)but-2-enamide] | 6.08 ± 2.69 | 0.66 ± 0.13 |  |  |
| CNC(=O)/C=C/CNCCOc1ccc(/C(=C(\c2ccccc2)C2CCC2)c2ccc3[nH]ncc3c2)cc1 [Compound 11, (E)-4-((2-(4-((E)-2-cyclobutyl-1-(1H-indazol-5-yl)-2-phenylvinyl)phenoxy)ethyl)amino)-N-methylbut-2-enamide] | 32.7 ± 22.2 | 2.08 ± 1.55 |  |  |
| O=C(O)/C=C/CNCCOc1ccc(/C(=C(/CC(F)(F)F)c2ccccc2)c2ccc3[nH]nc(F)c3c2)cn1 [Compound 72, (E)-4-((2-((5-((Z)-4,4,4-trifluoro-1-(3-fluoro-1H-indazol-5-yl)-2-phenylbut-1-en-1-yl)pyridin-2-yl)oxy)ethyl)amino)but-2-enoic acid] | 22.2 ± 14.3 | 1.86 ± 0.87 |  |  |
| O=C(/C=C/CNCCOc1ccc(/C(=C(\c2ccccc2)C2CCC2)c2ccc3[nH]ncc3c2)cc1)N1CCCC1 [Compound 35] | 27.3 ± 19.9 | 3.06 ± 0.25 |  |  |
| CNC(=O)CCCNCCOc1ccc(/C(=C(/CC(F)(F)F)c2ccccc2)c2ccc3[nH]nc(F)c3c2)cn1 [Compound 71, (Z)—N-methyl-4-((2-((5-(4,4,4-trifluoro-1-(3-fluoro-1H-indazol-5-yl)-2-phenylbut-1-en-1-yl)pyridin-2-yl)oxy)ethyl)amino)butanamide] | 5.31 | 0.62 |  |  |
| O=C1CCCN1CCOc1ccc(/C(=C(/CC(F)(F)F)c2ccccc2)c2ccc3[nH]nc(F)c3c2)cc1 [Compound 70, (E)-1-(2-(4-(4,4,4-trifluoro-1-(3-fluoro-1H-indazol-5-yl)-2-phenylbut-1-en-1-yl)phenoxy)ethyl)pyrrolidin-2-one] | 6.18 ± 2.51 | 0.95 ± 0.25 |  |  |
| CC/C(=C(/c1ccc(OCCNCCCC(=O)NC)nc1)c1ccc2[nH]ncc2c1)c1ccccc1 [Compound 62, (Z)-4-((2-((5-(1-(1H-indazol-5-yl)-2-phenylbut-1-en-1-yl)pyridin-2-yl)oxy)ethyl)amino)-N-methylbutanamide] | 14.5 ± 4.32 | 3.31 ± 0.43 |  |  |
| Cl.[2H]C([2H])([2H])N(C(=O)/C=C/CNCCOc1ccc(/C(=C(/CC(F)(F)F)c2ccccc2)c2ccc3[nH]nc(F)c3c2)cn1)C([2H])([2H])[2H] [Compound 24, (E)-N,N-di(^2H3)methyl-4-((2-((5-((Z)-4,4,4-trifluoro-1-(3-fluoro-1H-indazol-5-yl)-2-phenylbut-1-en-1-yl)pyridin-2-yl)oxy)ethyl)amino)but-2-enamide] |  |  | 3.34 ± 1.14 | 0.45 ± 0.11 |
